Measured values as given in the NIST ThermoML archive (doi:10.1016/j.jct.2015.10.026).
± gives the expanded uncertainty stated by the source.

Experiments:
[1] = 101.33 kPa, Liquid; for electrical conductivity: Direct current cell with electrodes; for mass density: Vibrating tube method
[2] = mn = molality of the nth substance listed, in mol/kg; conditions: 100 kPa, Liquid, Capillary tube (Ostwald / Ubbelohde) method, m2 = 0

CCCCn1cc[n+](C)c1.NCCS(=O)(=O)[O-] [1-butyl-3-methylimidazolium taurate]
[1], Cone and plate viscometry
Conditions	viscosity [mPa·s]
293.15 K	1761.4 ± 130
298.15 K	1169.2 ± 78
303.15 K	799.87 ± 48
308.15 K	561.88 ± 30
313.15 K	405.34 ± 19
318.15 K	298.26 ± 13
323.15 K	224.97 ± 8.9

[1]
Conditions	electrical conductivity [S/m]	mass density [kg/m3]
293.15 K	0.0098 ± 0.0003	1195.4 ± 4.9
298.15 K	0.0161 ± 0.0005	1192.1 ± 4.9
303.15 K	0.0257 ± 0.0008	1188.77 ± 4.9
308.15 K	0.0356 ± 0.0011	1185.4 ± 4.8
313.15 K	0.0518 ± 0.0016	1182.02 ± 4.8
318.15 K	0.0697 ± 0.0021	1178.53 ± 4.8
323.15 K	0.0922 ± 0.0028	1175.06 ± 4.7

O [water]
[1], Capillary tube (Ostwald / Ubbelohde) method
Conditions	viscosity [mPa·s]
293.15 K	1.003 ± 0.021
298.15 K	0.89 ± 0.019
303.15 K	0.797 ± 0.017
308.15 K	0.719 ± 0.015
313.15 K	0.653 ± 0.014

O [water] + CCCCn1cc[n+](C)c1.NCCS(=O)(=O)[O-]
[2]
Conditions	viscosity [mPa·s]
293.15 K	1.003 ± 0.021
298.15 K	0.89 ± 0.019
303.15 K	0.797 ± 0.017
308.15 K	0.719 ± 0.015
313.15 K	0.653 ± 0.014
